Data: patent US20040259835A1, “Stabilized brivudine topical formulations” (priority 2001, published 2004)

Tested on: varicella-zoster virus (VZV)
Test: not given
Conditions: state of the art; cited from earlier work

Q: For O=c1[nH]c(=O)n([C@H]2C[C@H](O)[C@@H](CO)O2)cc1/C=C/Br [brivudine, (E)-5-(2-bromovinyl)-2′-deoxyuridine], which “effectiveness against VZV (in words)” value is on record?
A: Its value is “very effective”.

Tested on: not listed separately
Test: Photostabilization of brivudine by admixed substances (formulation not specified)
Assay type: physicochemical
Conditions: not given
Text: DE 3136282 proposes to protect light-unstable drugs using substances with a similar absorption profile. The protective effect is supposed to depend on the similarity between the absorption spectra of the stabilizer and of the drug, that is, the larger is the overlapping between the two absorption spectra, the better is the photo-stabilization. According to DE3136282, the ICH (International Conference on Harmonisation) guideline CPMP/ICH/279/95 was followed to determine brivudine degradation. Several substances, including pharmaceutical excipients, colorants or photostable drugs were tested in admixture with brivudine.

Q: With O=C(c1ccc(O)cc1O)c1ccc(O)cc1O [2,2′,4,4′-tetrahydroxybenzophenon, 2,2′,4,4′-tetrahydroxy-benzophenone] as the compound, how does the “photostabilization of brivudine (in words)” value read?
A: The value was “effectively stabilize”.

Q: Which “photostabilization of brivudine (in words)” value does the source give for COc1cc(O)c(C(=O)c2cc(S(=O)(=O)[O-])c(OC)cc2O)cc1S(=O)(=O)[O-].[Na+].[Na+] [2,2′-dihydroxy-4,4′-dimethoxybenzophenone-5,5′-disodium sulfonate] here?
A: Its value is “effectively stabilize”.

Q: For O=C(c1ccccc1)c1ccc(O)cc1O [2,4-dihydroxy benzophenone], which “photostabilization of brivudine (in words)” value is on record?
A: The value was “effectively stabilize”.

Q: For COc1ccc(C(=O)c2ccccc2O)c(O)c1 [Dioxybenzone], which “photostabilization of brivudine (in words)” value is on record?
A: The value was “effectively stabilize”.

Q: With COc1ccc(C(=O)c2ccccc2)c(O)c1 [Oxybenzone] as the compound, how does the “photostabilization of brivudine (in words)” value read?
A: Its value is “effectively stabilize”.

Q: With CCCCC(CC)COC(=O)c1ccc(N(C)C)cc1 (centres unmarked) [Padimate O] as the compound, how does the “photostabilization of brivudine (in words)” value read?
A: The value was “No effects”.

Q: Which “photostabilization of brivudine (in words)” value does the source give for COc1cc(O)c(C(=O)c2ccccc2)cc1S(=O)(=O)O [Sulisobenzone] here?
A: The value was “effectively stabilize”.

Q: For O=S(=O)([O-])c1ccc(N=Nc2ccc(O)cc2O)cc1.[Na+] [Tropaeolin 0, 2,4-dihydroxyazobenzol-4′-sulfonic acid sodium salt], which “degradation of brivudine (in words)” value is on record?
A: Its value is “nearly no degradation of brivudine was detectable”.

Q: And the “photostabilization of brivudine (in words)” value?
A: Its value is “best recovery rates”.

Q: With CCCCC(CC)COC(=O)c1ccc(Nc2nc(Nc3ccc(C(=O)OCC(CC)CCCC)cc3)nc(Nc3ccc(C(=O)OCC(CC)CCCC)cc3)n2)cc1 (centres unmarked) [Uvinul® T150, 2,4,6-trianilino-p-(carbo-2′-ethyl-hexyl-1′-oxi)-1,3,5-triazin] as the compound, how does the “photostabilization of brivudine (in words)” value read?
A: Its value is “No effects”.

Q: Which “photostabilization of brivudine (in words)” value does the source give for O=C(O)CCCCC1CCSS1 (stereo not drawn) [alpha-liponic acid] here?
A: Its value is “did not show any effect”.

Q: With COc1ccc(C(=O)CC(=O)c2ccc(C(C)(C)C)cc2)cc1 [avobenzone] as the compound, how does the “photostabilization of brivudine (in words)” value read?
A: The value was “stabilize brivudine, although to a lesser extent”.

Q: Which “photostabilization of brivudine (in words)” value does the source give for CC1=C(/C=C/C(C)=C/C=C/C(C)=C/C=C/C=C(C)/C=C/C=C(C)/C=C/C2=C(C)CCCC2(C)C)C(C)(C)CCC1 [beta carotene, beta-carotene] here?
A: Its value is “remarkable photostabilization”.

Q: For N[C@@H](CS)C(=O)O [cystein], which “photostabilization of brivudine (in words)” value is on record?
A: The value was “did not show any effect”.

Q: With CC1CC(OC(=O)c2ccccc2O)CC(C)(C)C1 (centres unmarked) [homosalate] as the compound, how does the “photostabilization of brivudine (in words)” value read?
A: The value was “No effects”.

Q: With Cc1ccc(/C=C2/C(=O)C3(C)CCC2C3(C)C)cc1 (centres unmarked) [methyl-benzylidene-camphor] as the compound, how does the “photostabilization of brivudine (in words)” value read?
A: Its value is “stabilize brivudine, although to a lesser extent”.

Q: With CCCCC(CC)COC(=O)C(C#N)=C(c1ccccc1)c1ccccc1 (centres unmarked) [octocrylene] as the compound, how does the “photostabilization of brivudine (in words)” value read?
A: Its value is “stabilize brivudine, although to a lesser extent”.

Q: Which “photostabilization of brivudine (in words)” value does the source give for CCCCC(CC)COC(=O)C=Cc1ccc(OC)cc1 (centres unmarked) [octyl-methoxy-cinnamate] here?
A: Its value is “stabilize brivudine, although to a lesser extent”.

Same assay, conditions: substance in admixture with brivudine, UV irradiation

Q: Which “photostabilization of brivudine (in words)” value does the source give for “4-Bis(polyethoxy)paraamino-benzoicacid-polyethoxy-ethylester [Uvinul ® P25]” here?
A: The value was “No effects”.

Q: Which “photostabilization of brivudine (in words)” value does the source give for COc1cc(C=O)ccc1O [Vanillin] here?
A: Its value is “did not satisfactorily stabilize brivudine”.

Q: For “Type I: 2-(1,3-Dioxo-2-indanyl)-chinolin-disulfonic acid, Disodium salt Type II: 2-(1,3-Dioxo-2-indanyl)-methylchinolin-disulfonic acid, Disodium salt [Quinoline Yellow]”, which “photostabilization of brivudine (in words)” value is on record?
A: The value was “did not satisfactorily stabilize brivudine”.

Same assay, conditions: versus controls

Q: Which “protection of brivudine from decomposition over the controls” value does the source give for O=S(=O)([O-])c1ccc2c(N=Nc3ccc(S(=O)(=O)[O-])c4ccccc34)c(O)c(S(=O)(=O)[O-])cc2c1.[Na+].[Na+].[Na+] [Food red 9, 3-Hydroxy-4-(4-sulfonato-1-naphtylazo)-naphthalin-2,7-disulfonic acid, Trisodium salt] here?
A: The value was “more than 30%”.

Same assay, conditions: with respect to brivudine alone

Q: For “7-Hydroxy-8-(4-sulfonato-1-naphthylazo)-naphthalin-1,3-disulfonic acid, trisodium salt [Cochineal Red A]”, which “fold increase of brivudine photostabilization / recovery” value is on record?
A: The value was “more then threefold”.

Tested on: herpes simplex virus type 1 (HSV-1)
Test: not given
Conditions: state of the art; cited from earlier work

Q: With O=c1[nH]c(=O)n([C@H]2C[C@H](O)[C@@H](CO)O2)cc1/C=C/Br [brivudine, (E)-5-(2-bromovinyl)-2′-deoxyuridine] as the compound, how does the “effectiveness against HSV-1 (in words)” value read?
A: Its value is “very effective”.

Tested on: not given
Test: not given
Conditions: UV light; isomerization to Z-BVDU and other decomposition products; state of the art; cited from earlier work

Q: For O=c1[nH]c(=O)n([C@H]2C[C@H](O)[C@@H](CO)O2)cc1/C=C/Br [brivudine, (E)-5-(2-bromovinyl)-2′-deoxyuridine], which “light stability of brivudine (in words)” value is on record?
A: The value was “light-instability”.
